# Data reported in patent US9085603B2, “Progesterone receptor antagonists” (Bayer Intellectual Property GmbH, priority 2010, dated 2015).
# Key:
# [1] = target: T1, human progesterone receptor A (Homo sapiens, UniProt P06401); assay: Progesterone receptor antagonistic effect in stably transfected SK-N-MC cells, MTV-LUC reporter (PR-A); type: cell-based; details: antagonism of 0.1 nmol/l promegestone, luciferase reporter, 24 hours
# T1 construct: expressed in transfected cells; host or cells: SK-N-MC human neuroblastoma cells, stably transfected with pRChPR-A-neo and pMMTV-LUC
# T1 sequence (P06401 1-769 isoform P06401-2): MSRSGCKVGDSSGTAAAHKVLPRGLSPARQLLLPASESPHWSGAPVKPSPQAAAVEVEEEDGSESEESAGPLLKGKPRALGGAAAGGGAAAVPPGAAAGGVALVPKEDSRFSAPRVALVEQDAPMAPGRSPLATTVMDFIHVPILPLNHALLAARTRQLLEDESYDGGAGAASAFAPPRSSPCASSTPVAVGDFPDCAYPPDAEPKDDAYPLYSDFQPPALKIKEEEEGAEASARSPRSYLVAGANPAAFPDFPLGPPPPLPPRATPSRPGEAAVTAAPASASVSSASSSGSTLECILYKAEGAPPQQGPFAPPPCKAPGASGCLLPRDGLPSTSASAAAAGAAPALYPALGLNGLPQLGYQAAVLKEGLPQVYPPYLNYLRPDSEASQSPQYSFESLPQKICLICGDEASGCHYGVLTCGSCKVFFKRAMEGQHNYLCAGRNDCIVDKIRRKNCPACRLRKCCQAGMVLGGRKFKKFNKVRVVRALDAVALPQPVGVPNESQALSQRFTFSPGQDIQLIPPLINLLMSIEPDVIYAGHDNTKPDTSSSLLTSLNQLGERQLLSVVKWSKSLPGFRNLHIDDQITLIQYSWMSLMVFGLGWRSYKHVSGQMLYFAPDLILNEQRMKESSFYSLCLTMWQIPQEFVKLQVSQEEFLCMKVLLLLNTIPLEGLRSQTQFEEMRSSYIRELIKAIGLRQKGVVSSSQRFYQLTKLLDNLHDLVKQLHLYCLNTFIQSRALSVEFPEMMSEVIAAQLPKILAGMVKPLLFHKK
# Experimental: (§1) Progesterone Receptor Antagonistic Effect in Stable Transfectants of Human Neuroblastoma Cells (SK-N-MC cells) with the Human Progesterone A or Progesterone B Receptor and a MTV-LUC Reporter Construct
# (§2) SK-N-MC cells (human neuroblastoma cells), which have been stably transfected with plasmids which express the human progesterone receptor B (pRChPR-B-neo) or the human progesterone receptor A (pRChPR-A-neo) and a reporter construct (pMMTV-LUC), were incubated for 24 hours either in the absence (negative control) or in the presence of increasing amounts of the particular test compound (0.01 nmol/l, 0.1 nmol/l, 1 nmol/l, 10 nmol/l, 100 nmol/l and 1 μmol/l) in order to determine the agonistic efficacy. As a positive control of the reporter gene induction, the cells were treated with the synthetic gestagen promegestone (0.01 nmol/l, 0.1 nmol/l, 1 nmol/l, 10 nmol/l, 100 nmol/l and 1 μmol/l). To determine the antagonistic activity, the cells were treated with 0.1 nmol/l of promegestone and additionally with increasing amounts of the particular test compound (0.01 nmol/l, 0.1 nmol/l, 1 nmol/l, 10 nmol/l, 100 nmol/l and 1 μmol/l). The activity of the reporter gene LUC (LUC=luciferase) was determined in the cell lysates and measured as RLU (relative light units). All measurement values are given as percentage efficacy and as EC50 or IC50 concentrations.
# [2] = target: T2, human progesterone receptor B (Homo sapiens, UniProt P06401); assay: Progesterone receptor antagonistic effect in stably transfected SK-N-MC cells, MTV-LUC reporter (PR-B); type: cell-based; details: antagonism of 0.1 nmol/l promegestone, luciferase reporter, 24 hours
# T2 construct: expressed in transfected cells; host or cells: SK-N-MC human neuroblastoma cells, stably transfected with pRChPR-B-neo and pMMTV-LUC
# T2 sequence (P06401 1-933): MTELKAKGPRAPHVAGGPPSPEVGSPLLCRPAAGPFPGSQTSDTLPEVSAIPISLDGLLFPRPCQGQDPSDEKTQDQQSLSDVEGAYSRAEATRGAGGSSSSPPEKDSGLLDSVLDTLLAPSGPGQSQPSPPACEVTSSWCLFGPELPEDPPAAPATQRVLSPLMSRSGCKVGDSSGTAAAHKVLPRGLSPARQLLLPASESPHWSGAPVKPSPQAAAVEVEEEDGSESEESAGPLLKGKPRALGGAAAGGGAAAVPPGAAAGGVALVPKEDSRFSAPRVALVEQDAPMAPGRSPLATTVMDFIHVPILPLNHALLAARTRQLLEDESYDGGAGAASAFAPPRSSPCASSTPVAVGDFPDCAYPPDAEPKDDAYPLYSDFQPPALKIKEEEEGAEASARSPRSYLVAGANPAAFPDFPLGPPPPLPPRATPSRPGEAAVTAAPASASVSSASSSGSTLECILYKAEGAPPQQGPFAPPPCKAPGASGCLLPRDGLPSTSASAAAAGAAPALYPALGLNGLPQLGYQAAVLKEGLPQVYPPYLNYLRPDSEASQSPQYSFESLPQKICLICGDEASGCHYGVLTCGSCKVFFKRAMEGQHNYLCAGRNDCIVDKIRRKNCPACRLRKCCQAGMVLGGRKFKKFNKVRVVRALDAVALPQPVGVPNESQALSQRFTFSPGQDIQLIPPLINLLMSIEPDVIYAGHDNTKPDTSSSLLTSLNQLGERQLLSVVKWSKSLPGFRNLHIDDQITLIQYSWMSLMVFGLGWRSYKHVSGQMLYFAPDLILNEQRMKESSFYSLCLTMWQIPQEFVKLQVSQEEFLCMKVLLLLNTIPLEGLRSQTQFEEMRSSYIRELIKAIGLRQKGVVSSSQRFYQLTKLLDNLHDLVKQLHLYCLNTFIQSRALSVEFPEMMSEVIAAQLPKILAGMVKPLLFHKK
# Experimental: as §1, §2
SMILES,IC50 [1] [nM],IC50 [2] [nM]
"CN(C)Cc1ccc([C@H]2C[C@@]3(C)C(CC[C@@]3(O)C(F)(F)C(F)(F)F)C3CCC4=CC(=O)CCC4=C32)cc1 (stereo partly drawn) [Example 1, (11β,17β)-11-{4-[(Dimethylamino)methyl]phenyl}-17-hydroxy-17-(pentafluoroethyl)estra-4,9-dien-3-one]",7.5,8.2
"CN1CCN(Cc2ccc([C@H]3C[C@@]4(C)[C@@H](CC[C@@]4(O)C(F)(F)C(F)(F)F)[C@@H]4CCC5=CC(=O)CCC5=C43)cc2)CC1 [Example 2, (11β,17β)-17-Hydroxy-11-{4-[(4-methylpiperazin-1-yl)methyl]phenyl}-17-(pentafluoroethyl)estra-4,9-dien-3-one]",,2.8
"CC(C)(C)OC(=O)N1CCN(Cc2ccc([C@H]3C[C@@]4(C)[C@@H](CC[C@@]4(O)C(F)(F)C(F)(F)F)[C@@H]4CCC5=CC(=O)CCC5=C43)cc2)CC1 [Example 3, tert-Butyl 4-{4-[(11β,17β)-17-hydroxy-3-oxo-17-(pentafluoroethyl)estra-4,9-dien-11-yl]benzyl}piperazine-1-carboxylate]",0.11,0.15
"C[C@]12C[C@H](c3ccc(CN4CCCCC4)cc3)C3=C4CCC(=O)C=C4CC[C@H]3[C@@H]1CC[C@@]2(O)C(F)(F)C(F)(F)F [Example 4, (11β,17β)-17-Hydroxy-17-(pentafluoroethyl)-11-[4-(piperidin-1-ylmethyl)phenyl]estra-4,9-dien-3-one]",1.4,2.1
"COC(=O)C1CCN(Cc2ccc([C@H]3C[C@@]4(C)[C@@H](CC[C@@]4(O)C(F)(F)C(F)(F)F)[C@@H]4CCC5=CC(=O)CCC5=C43)cc2)CC1 [Example 5, Methyl 1-{4-[(11β,17β)-17-hydroxy-3-oxo-17-(pentafluoroethyl)estra-4,9-dien-11-yl]benzyl}piperidine-4-carboxylate]",1.2,0.99
"CC(C)(C)OC(=O)N1CCCN(Cc2ccc([C@H]3C[C@@]4(C)[C@@H](CC[C@@]4(O)C(F)(F)C(F)(F)F)[C@@H]4CCC5=CC(=O)CCC5=C43)cc2)CC1 [Example 6, tert-Butyl 4-{4-[(11β,17β)-17-hydroxy-3-oxo-17-(pentafluoroethyl)estra-4,9-dien-11-yl]benzyl}-1,4-diazepane-1-carboxylate]",0.33,0.3
"C[C@]12C[C@H](c3ccc(CN4CCOCC4)cc3)C3=C4CCC(=O)C=C4CC[C@H]3[C@@H]1CC[C@@]2(O)C(F)(F)C(F)(F)F [Example 7, (11β,17β)-17-Hydroxy-11-[4-(morpholin-4-ylmethyl)phenyl]-17-(pentafluoroethyl)estra-4,9-dien-3-one]",0.1,0.1
"C[C@]12C[C@H](c3ccc(CN4CCS(=O)(=O)CC4)cc3)C3=C4CCC(=O)C=C4CCC3C1CC[C@@]2(O)C(F)(F)C(F)(F)F (stereo partly drawn) [Example 8, (11β,17β)-11-{4-[(1,1-Dioxidothiomorpholin-4-yl)methyl]phenyl}-17-hydroxy-17-(pentafluoroethyl)estra-4,9-dien-3-one]",0.1,0.3
"C[C@]12C[C@H](c3ccc(CNCCc4ccccc4)cc3)C3=C4CCC(=O)C=C4CC[C@H]3[C@@H]1CC[C@@]2(O)C(F)(F)C(F)(F)F [Example 9, (11β,17β)-17-Hydroxy-17-(pentafluoroethyl)-11-(4-{[(2-phenylethyl)amino]methyl}phenyl)estra-4,9-dien-3-one]",1.3,0.98
"C[C@]12C[C@H](c3ccc(CN4CCNCC4)cc3)C3=C4CCC(=O)C=C4CC[C@H]3[C@@H]1CC[C@@]2(O)C(F)(F)C(F)(F)F [Example 10, (11β,17β)-17-Hydroxy-17-(pentafluoroethyl)-11-[4-(piperazin-1-yl-methyl)phenyl]estra-4,9-dien-3-one]",0.88,0.12
"C[C@]12C[C@H](c3ccc(CN4CCN(C(=O)c5ccccc5)CC4)cc3)C3=C4CCC(=O)C=C4CCC3C1CC[C@@]2(O)C(F)(F)C(F)(F)F (stereo partly drawn) [Example 13, (11β,17β)-11-{4-[(4-Benzoylpiperazin-1-yl)methyl]phenyl}-17-hydroxy-17-(Pentafluoroethyl)estra-4,9-dien-3-one]",0.092,0.1
"CC(C)(C)C(=O)N1CCN(Cc2ccc([C@H]3C[C@@]4(C)C(CC[C@@]4(O)C(F)(F)C(F)(F)F)C4CCC5=CC(=O)CCC5=C43)cc2)CC1 (stereo partly drawn) [Example 14, (11β,17β)-11-(4-{[4-(2,2-Dimethylpropanoyl)piperazin-1-yl]methyl}phenyl)-17-hydroxy-17-(pentafluoroethyl)estra-4,9-dien-3-one]",0.1,0.094
"C[C@]12C[C@H](c3ccc(CN4CCC(C(=O)O)CC4)cc3)C3=C4CCC(=O)C=C4CC[C@H]3[C@@H]1CC[C@@]2(O)C(F)(F)C(F)(F)F [Example 15, 1-{4-[(11β,17β)-17-hydroxy-3-oxo-17-(pentafluoroethyl)estra-4,9-dien-11-yl]benzyl}piperidine-4-carboxylic acid]",53,60
"C[C@]12C[C@H](c3ccc(CN4CCCNCC4)cc3)C3=C4CCC(=O)C=C4CCC3C1CC[C@@]2(O)C(F)(F)C(F)(F)F (stereo partly drawn) [Example 16, (11β,17β)-11-[4-(1,4-Diazepan-1-ylmethyl)phenyl]-17-hydroxy-17-(pentafluoroethyl)estra-4,9-dien-3-one]",2.7,2.8
"CC(=O)N1CCCN(Cc2ccc([C@H]3C[C@@]4(C)C(CC[C@@]4(O)C(F)(F)C(F)(F)F)C4CCC5=CC(=O)CCC5=C43)cc2)CC1 (stereo partly drawn) [Example 17, (11β,17β)-11-{4-[(4-Acetyl-1,4-diazepan-1-yl)methyl]phenyl}-17-hydroxy-17-(pentafluoroethyl)estra-4,9-dien-3-one]",0.56,0.57
